How the values were obtained:
Test in all cases: relative viability (nuclei count vs DMSO), 5 days (fraction); higher = more cells survive
Vandetanib + Vorinostat = compound: COc1cc2/c(=N/c3ccc(Br)cc3F)nc[nH]c2cc1OCC1CCN(C)CC1 [Vandetanib] + O=C(CCCCCCC(=O)Nc1ccccc1)NO [Vorinostat] (partner 1 µM)
Outline: (§1)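 Values are medians from duplicate plates. Each reflects relative viability, defined as the nuclei count of treated wells over that of vehicle wells. Lung cancer cell lines in 1536-well plates were pin-tool dosed one day after seeding with one drug alone or with a fixed anchor-drug dose plus five library-drug doses (not always all listed) in √10 steps, then fixed, stained and imaged at 4× after 5 days.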

Vandetanib + Foretinib = compound: COc1cc2/c(=N/c3ccc(Br)cc3F)nc[nH]c2cc1OCC1CCN(C)CC1 [Vandetanib] + COc1cc2c(Oc3ccc(NC(=O)C4(C(=O)Nc5ccc(F)cc5)CC4)cc3F)ccnc2cc1OCCCN1CCOCC1 [Foretinib] (partner 0.25 µM)
Outline: as §1

CUDC-101 + Pictilisib = compound: C#Cc1cccc(Nc2ncnc3cc(OC)c(OCCCCCCC(=O)NO)cc23)c1 [CUDC-101] + CS(=O)(=O)N1CCN(Cc2cc3nc(-c4cccc5[nH]ncc45)nc(N4CCOCC4)c3s2)CC1 [Pictilisib] (partner 1 µM)
Outline: as §1

Vandetanib + Dasatinib = compound: COc1cc2/c(=N/c3ccc(Br)cc3F)nc[nH]c2cc1OCC1CCN(C)CC1 [Vandetanib] + Cc1nc(Nc2ncc(C(=O)Nc3c(C)cccc3Cl)s2)cc(N2CCN(CCO)CC2)n1 [Dasatinib] (partner 0.075 µM)
Outline: as §1

UMC-11
relative viability (Vandetanib + Vorinostat; first compound 0.02 µM): 0.43 | relative viability (Vandetanib + Vorinostat; first compound 0.06325 µM): 0.373 | relative viability (Vandetanib + Vorinostat; first compound 0.2 µM): 0.399 | relative viability (Vandetanib + Vorinostat; first compound 0.6325 µM): 0.342 | relative viability (Vandetanib + Vorinostat; first compound 2 µM): 0.364 | relative viability (Vandetanib + Foretinib; first compound 0.02 µM): 1.05 | relative viability (Vandetanib + Foretinib; first compound 0.06325 µM): 1.01 | relative viability (Vandetanib + Foretinib; first compound 0.2 µM): 0.281 | relative viability (Vandetanib + Foretinib; first compound 0.6325 µM): 0.962 | relative viability (Vandetanib + Foretinib; first compound 2 µM): 0.97 | relative viability (CUDC-101 + Pictilisib; first compound 0.01 µM): 0.857 | relative viability (CUDC-101 + Pictilisib; first compound 0.03162 µM): 0.775 | relative viability (CUDC-101 + Pictilisib; first compound 0.1 µM): 0.679 | relative viability (CUDC-101 + Pictilisib; first compound 0.3162 µM): 0.575 | relative viability (CUDC-101 + Pictilisib; first compound 1 µM): 0.108 | relative viability (Vandetanib + Dasatinib; first compound 0.02 µM): 0.442 | relative viability (Vandetanib + Dasatinib; first compound 0.06325 µM): 0.422 | relative viability (Vandetanib + Dasatinib; first compound 0.2 µM): 0.43 | relative viability (Vandetanib + Dasatinib; first compound 0.6325 µM): 0.497 | relative viability (Vandetanib + Dasatinib; first compound 2 µM): 0.462
